# Values of other authors in PubChem BioAssay AID1259409 (Chemical Carcinogenesis Research Information System (CCRIS), 2018).
# Test system: rodent chemically induced tumor inhibition, incidence and multiplicity
# Assay: CCRIS tumor inhibitor studies
# Conditions: Carcinogen: DIETHYLNITROSAMINE, 55-18-5, N-METHYLNITROSOUREA, 684-93-5, 1,2-DIMETHYLHYDRAZINE, 540-73-8, Carcinogen: DIETHYLNITROSAMINE, 55-18-5, N-METHYLNITROSOUREA, 684-93-5, 1,2-DIMETHYLHYDRAZINE, 540-73-8, Dose [Inhibitor]: 0, Route [Inhibitor]: ORAL, Species: RAT, Strain/Sex: F344/MALE, Dose [Carcinogen]: 100 MG/KG DEN ONCE, 20 MG/KG MNU 4 TIMES, 40 MG/KG DMH 4 TIMES, 0.05% BBN IN DRINKING WATER FOR 2 WK, 0.1% DHPN IN D, Dose [Carcinogen]: 100 MG/KG DEN ONCE, 20 MG/KG MNU 4 TIMES, 40 MG/KG DMH 4 TIMES, 0.05% BBN IN DRINKING WATER FOR 2 WK, 0.1% DHPN IN D, Promoter: NONE USED
smiles,measurement,setting,value
COc1cc(C=O)ccc1O,"tumour outcome (control, treated, inhibition, significance)","N-BUTYL-N-(4-HYDROXYB, N-BUTYL-N-(4-HYDROXYB, 1% IN DIET FOR 4 WK BEGINNING 1 DAY PRIOR TO CARCINOGEN TREATMENT (STUDY DURATION: 36 WK), Target Tissue: Type of Lesion: KIDNEY: ADENOMA","4/14 (29%), 4/15 (27%), 7%, not significant"
same,"tumour outcome (control, treated, inhibition, significance)","N-BUTYL-N-(4-HYDROXYB, N-BUTYL-N-(4-HYDROXYB, 1% IN DIET FOR 4 WK BEGINNING 1 DAY PRIOR TO CARCINOGEN TREATMENT (STUDY DURATION: 36 WK), Target Tissue: Type of Lesion: KIDNEY: NEPHROBLASTOMA","7/14 (50%), 8/15 (53%), -6%, not significant"
same,"tumour outcome (control, treated, inhibition, significance)","N-BUTYL-N-(4-HYDROXYB, N-BUTYL-N-(4-HYDROXYB, 1% IN DIET FOR 4 WK BEGINNING 1 DAY PRIOR TO CARCINOGEN TREATMENT (STUDY DURATION: 36 WK), Target Tissue: Type of Lesion: LARGE INTESTINE: ADENOMA","7/14 (50%), 6/15 (40%), 20%, not significant"
same,"tumour outcome (control, treated, inhibition, significance)","N-BUTYL-N-(4-HYDROXYB, N-BUTYL-N-(4-HYDROXYB, 1% IN DIET FOR 4 WK BEGINNING 1 DAY PRIOR TO CARCINOGEN TREATMENT (STUDY DURATION: 36 WK), Target Tissue: Type of Lesion: LARGE INTESTINE: CARCINOMA","3/14 (21%), 11/15 (73%), -248%, p<0.01"
same,"tumour outcome (control, treated, inhibition, significance)","N-BUTYL-N-(4-HYDROXYB, N-BUTYL-N-(4-HYDROXYB, 1% IN DIET FOR 4 WK BEGINNING 1 DAY PRIOR TO CARCINOGEN TREATMENT (STUDY DURATION: 36 WK), Target Tissue: Type of Lesion: LUNG: ADENOMA","6/14 (43%), 2/15 (13%), 70%, not significant"
same,"tumour outcome (control, treated, inhibition, significance)","N-BUTYL-N-(4-HYDROXYB, N-BUTYL-N-(4-HYDROXYB, 1% IN DIET FOR 4 WK BEGINNING 1 DAY PRIOR TO CARCINOGEN TREATMENT (STUDY DURATION: 36 WK), Target Tissue: Type of Lesion: SMALL INTESTINE: ADENOMA","6/14 (43%), 3/15 (20%), 53%, not significant"
same,"tumour outcome (control, treated, inhibition, significance)","N-BUTYL-N-(4-HYDROXYB, N-BUTYL-N-(4-HYDROXYB, 1% IN DIET FOR 4 WK BEGINNING 1 DAY PRIOR TO CARCINOGEN TREATMENT (STUDY DURATION: 36 WK), Target Tissue: Type of Lesion: SMALL INTESTINE: CARCINOMA","5/14 (36%), 2/15 (13%), 64%, not significant"
same,"tumour outcome (control, treated, inhibition, significance)","N-BUTYL-N-(4-HYDROXYB, N-BUTYL-N-(4-HYDROXYB, 1% IN DIET FOR 32 WK BEGINNING POST CARCINOGEN TREATMENT (STUDY DURATION: 36 WK), Target Tissue: Type of Lesion: KIDNEY: ADENOMA","4/14 (29%), 9/15 (60%), -107%, not significant"
same,"tumour outcome (control, treated, inhibition, significance)","N-BUTYL-N-(4-HYDROXYB, N-BUTYL-N-(4-HYDROXYB, 1% IN DIET FOR 32 WK BEGINNING POST CARCINOGEN TREATMENT (STUDY DURATION: 36 WK), Target Tissue: Type of Lesion: KIDNEY: NEPHROBLASTOMA","7/14 (50%), 11/15 (73%), -46%, not significant"
same,"tumour outcome (control, treated, inhibition, significance)","N-BUTYL-N-(4-HYDROXYB, N-BUTYL-N-(4-HYDROXYB, 1% IN DIET FOR 32 WK BEGINNING POST CARCINOGEN TREATMENT (STUDY DURATION: 36 WK), Target Tissue: Type of Lesion: LARGE INTESTINE: CARCINOMA","3/14 (21%), 5/15 (33%), -57%, not significant"
same,"tumour outcome (control, treated, inhibition, significance)","N-BUTYL-N-(4-HYDROXYB, N-BUTYL-N-(4-HYDROXYB, 1% IN DIET FOR 32 WK BEGINNING POST CARCINOGEN TREATMENT (STUDY DURATION: 36 WK), Target Tissue: Type of Lesion: SMALL INTESTINE: ADENOMA","6/14 (43%), 4/15 (27%), 37%, not significant"
same,"tumour outcome (control, treated, inhibition, significance)","N-BUTYL-N-(4-HYDROXYB, N-BUTYL-N-(4-HYDROXYB, 1% IN DIET FOR 32 WK BEGINNING POST CARCINOGEN TREATMENT (STUDY DURATION: 36 WK), Target Tissue: Type of Lesion: SMALL INTESTINE: CARCINOMA","5/14 (36%), 1/15 (7%), 81%, not significant"
same,"tumour outcome (control, treated, inhibition, significance)","N-BUTYL-N-(4-HYDROXYBU, N-BUTYL-N-(4-HYDROXYBU, 1% IN DIET FOR 32 WK BEGINNING POST CARCINOGEN TREATMENT (STUDY DURATION: 36 WK), Target Tissue: Type of Lesion: LARGE INTESTINE: ADENOMA","7/14 (50%), 8/15 (53%), -6%, not significant"
same,"tumour outcome (control, treated, inhibition, significance)","N-BUTYL-N-(4-HYDROXYBU, N-BUTYL-N-(4-HYDROXYBU, 1% IN DIET FOR 32 WK BEGINNING POST CARCINOGEN TREATMENT (STUDY DURATION: 36 WK), Target Tissue: Type of Lesion: LUNG: ADENOMA","6/14 (43%), 3/15 (20%), 53%, p<0.05"
